Experimental data from US9045484B2, “Inhibitors of the BMP signaling pathway” (The Brigham and Women's Hospital, Inc., priority 2008, dated 2015).
Structures can show the parent of a compound that is named as a salt. Where two headings read alike, the source gives them in different places. Blank lines part the entries; values can stand above or below the compound they belong to.

Assays:
[1] = system: BMP-induced phosphorylation of SMAD1/5/8; assay: BMP4-induced phosphorylation of SMAD1/5/8, cytoblot (cellular ELISA); type: cell-based, murine; conditions: Mus musculus
Experimental: Murine pulmonary artery smooth muscle cells were isolated, explanted and cultured as previously described (see […] et al. Am. J. Physiol. Lung Cell Mol. Physiol. 280:[…], 2001) and then grown to confluence in 96 well tissue culture plates. Cells were incubated in serum-free medium for 18 h, and then incubated with recombinant BMP2, BMP4, BMP6, BMP9, GDF5, TGF-β, or Activin A ligands (R&D Systems, Minneapolis, Minn.) at varying concentrations in duplicate for 20 minutes. […] Specificity for BMP-mediated signaling was determined separately using a modification of the cellular ELISA technique assaying for the activation of SMAD2 or SMAD3 via TGF-β, or Activin A. A corresponding IC50 was calculated for the effects of these compounds upon those signaling pathways.

[2] = Plasma pharmacokinetics after single oral administration; type: in vivo; conditions: C57B16, mouse, oral 3 mg/kg
Experimental: (§1) The pharmacokinetics of compound 70 was evaluated after a single oral administration (3 mg/kg) in male C57B16 mice on a commercial rodent diet and water ad libitum prior to the study. Compound plasma levels were determined by LC-MS/MS and the pharmacokinetic parameters were determined using WinNonlin software (Pharsight Co., Mountain View, Calif.). Dosing solutions (0.6 mg/mL) were prepared in a vehicle comprising 2% hydropropyl-β-cyclodextrin in phosphate-buffered saline (PBS). Each time point (pre-dose, 15, 30, 60, 120, 240, 360, 480 and 1440 min post-dose) was dosed as N=3. Each blood sample was collected via cardiac puncture after euthanasia with CO2 and placed in chilled tubes containing sodium heparin. Samples were centrifuged at 4° C. at 13,000 rpm for 5 min followed by extracted with acetonitrile and then analyzed.
as §1, with “13.HCl” for “compound 70”

[3] = Plasma pharmacokinetics after single bolus intraperitoneal administration; type: in vivo, C57B16 mice; conditions: C57B16, mouse, Table 3, male mice, IP 3 mg/kg; for Tmax: read-out: tmax
Experimental: as §1, with “13.HCl” for “compound 70”, “bolus intraperitoneal” for “oral”, “male and female” for “male”, “(pre-dose, 5, 10,” for “(pre-dose,”, “480,” for “360, 480 and”, “N=3/sex.” for “N=3.”
The pharmacokinetics of 44.HCl and 37.HCl were evaluated after a single bolus intraperitoneal administration (3 mg/kg) in male C57B16 mice on a commercial rodent diet and water ad libitum prior to the study. Compound plasma levels were determined by LC-MS/MS and the pharmacokinetic parameters were determined using WinNonlin software (Pharsight Co., Mountain View, Calif.). Dosing solutions (0.6 mg/mL) were prepared in a vehicle comprising 2% hydropropyl-β-cyclodextrin in phosphate-buffered saline (PBS). Each time point (pre-dose, 5, 10, 15, 30, 60, 120, 240, 480, 1440 min post-dose) was dosed as
N=3/sex. Each blood sample was collected via cardiac puncture after euthanasia with CO2 and placed in chilled tubes containing sodium heparin. Samples were centrifuged at 4° C. at 13,000 rpm for 5 min followed by extracted with acetonitrile and then analyzed.

PDGFR-mediated signaling = assay: PDGF-induced AKT phosphorylation, cellular ELISA in PaSMCs; type: cell-based, murine; conditions: Mus musculus, PASMC; compounds 10 min, then PDGF 30 min; FIG. 2; read-out: functional IC50, PDGF-induced AKT phosphorylation
Experimental: To test the relative effects of dorsomorphin and structurally-related compounds upon PDGFR-mediated signaling, PDGF-induced AKT phosphorylation was measured by cellular ELISA via the detection of phospho-AKT in PaSMCs treated with compounds for 10 min. followed by PDGF for 30 min.

[4] = Microsomal stability in pooled mouse liver microsomes; type: in vitro ADME; conditions: 0.5 mg/mL microsome protein, 1 mM NADPH
Experimental: Test compound (3 μM final concentration) along with 0.5 mg/mL microsome protein and 1 mM NADPH was incubated for 0, 5, 15, 30 and 60 min. Incubation of test compound and microsomes in the absence of NADPH served as a negative control. The samples were quenched with methanol and centrifuged for 20 min at 2500 rpm to precipitate proteins. Sample supernatants were analyzed (N=3) by LC/MS. The ln peak area ratio (compound peak area/internal standard peak area) was plotted against time and the slope of the line determined to give the elimination rate constant [k=(−1)(slope)]. The half life (t1/2 in minutes) and the in vitro intrinsic clearance (CLint in μL/min/mg protein) values were calculated according to the following equations, where V=incubation volume in μL/mg protein: […]

[5] = Serum iron levels (Ferene S assay) after IP injections; type: in vivo, C57BL/6 mice; conditions: two IP injections 10 mg/kg 12 h apart; 24 h after first injection
Experimental: In C57BL/6 mice, two IP injections of dorsomorphin (10 mg/kg) 12 h apart increased serum iron levels, measured by the Ferene S assay (ThermoFisher Scientific, Waltham, Mass.) measured 24 h after first injection by over 60%. (see FIG. 4; n=8 vehicle, n=7 dorsomorphin, P<0.001). Results are expressed as mean±SD.

[6] = system: IL6-induced hepcidin expression in HepG2 cells; assay: IL6-induced hepcidin expression in HepG2 hepatoma cells; type: cell-based, human; conditions: pretreatment; data not shown
Experimental: HepG2 cells pretreated with compound 13 (5-625 nM) or vehicle for 30 min. were incubated with IL6 (50 ng/mL) for 1.5 h. Cells were harvested, and hepcidin mRNA and 18S rRNA levels were measured by quantitative RT-PCR. Changes in gene expression were normalized to 18S ribosomal RNA levels using the relative cycle threshold method.

[7] = approximate IC50, cellular ELISA, murine pulmonary artery smooth muscle cells, read-out: IC50 for inhibition of BMP-induced phosphorylation of SMAD1/5/8

SMILES: COc1ccc(-c2cnc3c(-c4ccncc4)cnn3c2)cc1 [4-OMe-Ph, 4-Py, H, N, N, 6-(4-Methoxyphenyl)-3-pyridin-4-yl-pyrazolo[1,5-a]pyrimidine]
- IC50 [1, 7]: > 1000 nM

SMILES: COc1ccc(-c2ccc3c(-c4ccnc5ccccc45)cnn3c2)cc1 [4-OMe-Ph, 4-quinolinyl, H, CH, N, 4-[6-(4-Methoxyphenyl)pyrazolo[1,5-a]pyridin-3-yl]quinoline]
- IC50 [1, 7]: < 500 nM

SMILES: Cl.c1ccc2c(-c3cnn4cc(-c5ccc(N6CCNCC6)cc5)cnc34)ccnc2c1 [13•HCl, 4-[6-(4-piperazin-1-ylphenyl)pyrazolo[1,5-a]pyrimidin-3-yl]quinoline hydrochloride salt]
- AUC(0-inf) ([2]; Table 5, male mice): 919 ng·h/mL
- Cmax ([2]; Table 5, male mice): 690 nM
- Tmax ([2]; Table 5, male mice): 1 h
- half-life ([2]; Table 5, male mice): 1.1 h

SMILES: c1cc(-c2cnn3cc(-c4ccc(OCCN5CCCCC5)cc4)cnc23)ccn1 [Dorsomorphin, reference compound]
- IC50 (PDGFR-mediated signaling): ~500 nM
- half-life at 3 μM ([4]; read-out: half-life (t1/2) in mouse liver microsomes): 0.173 h
- microsomal CLint at 3 μM ([4]; read-out: intrinsic clearance (CLint) in mouse liver microsomes): 133 ± 6.6 µL/min/mg
- increase of serum iron levels [5]: over 60%
- IC50 ([1]; FIG. 1, approximate, read-out: functional IC50, BMP4-induced SMAD1/5/8 phosphorylation): ~400 nM

SMILES: C[C@@H]1C[C@@H]([C@H](O)CC2CC(=O)NC(=O)C2)C(=O)[C@@H](C)C1 [cycloheximide, reference compound]
- ability of IL6 to induce hepcidin gene expression [6]: did not block the ability of IL6 to induce hepcidin gene expression

The next lines start with the values.

- IC50 [1, 7]: > 20000 nM
SMILES: COC(=O)c1cc(-c2ccnc3ccccc23)c2ncc(-c3ccc(OC)cc3)cn12 [4-OMe-Ph, 4-quinolinyl, H, N, CCO2Me, Methyl 3-(4-methoxyphenyl)-8-quinolin-4-yl-pyrrolo[1,2-a]pyrimidine-6-carboxylate]

- IC50 [1, 7]: > 20000 nM
SMILES: COc1ccc(-c2cnc3c(-c4ccnc5ccccc45)ccn3c2)cc1 [4-OMe-Ph, 4-quinolinyl, H, N, CH, 4-[3-(4-Methoxyphenyl)pyrrolo[1,2-a]pyrimidin-8-yl]quinoline]

- AUC(0-inf) [3]: 207 ng·h/mL
- Cmax [3]: 290 nM
- half-life [3]: 2.2 h
- Tmax [3]: < 0.25 h
SMILES: c1ccc2c(-c3cnn4cc(-c5ccc(N6CCNCC6)cc5)ccc34)ccnc2c1 [37•HCl, 4-[6-(4-Piperazin-1-ylphenyl)pyrazolo[1,5-a]pyridin-3-yl]-quinoline]

- AUC(0-inf) [3]: 583 ng·h/mL
- Cmax [3]: 660 nM
- half-life [3]: 1.4 h
- Tmax [3]: < 0.25 h
SMILES: COC1(c2ccc(-c3cnc4c(-c5ccnc6ccccc56)cnn4c3)cc2)CCNCC1 [44•HCl, 4-(6-(4-(4-methoxypiperidin-4-yl)phenyl)pyrazolo[1,5-a]pyrimidin-3-yl)quinoline]

- AUC(0-inf) ([2]; Table 4, male mice): 143 ng·h/mL
- Cmax ([2]; Table 4, male mice): 100 nM
- Tmax ([2]; Table 4, male mice): 0.25 h
- half-life ([2]; Table 4, male mice): 1.7 h
SMILES: OC1(c2ccc(-c3cnc4c(-c5ccnc6ccccc56)cnn4c3)cc2)CCNCC1 [Compound 70, 4-(4-(3-(quinolin-4-yl)pyrazolo[1,5-a]pyrimidin-6-yl)phenyl)piperidin-4-ol]
